This is an account of results in US20240025884A1 (Dong-A ST Co., Ltd., priority 2022, published 2024).

One may read the IC50 as the midpoint of a concentration-inhibition curve.

Sequence of GCN2 (Q9P2K8 whole entry): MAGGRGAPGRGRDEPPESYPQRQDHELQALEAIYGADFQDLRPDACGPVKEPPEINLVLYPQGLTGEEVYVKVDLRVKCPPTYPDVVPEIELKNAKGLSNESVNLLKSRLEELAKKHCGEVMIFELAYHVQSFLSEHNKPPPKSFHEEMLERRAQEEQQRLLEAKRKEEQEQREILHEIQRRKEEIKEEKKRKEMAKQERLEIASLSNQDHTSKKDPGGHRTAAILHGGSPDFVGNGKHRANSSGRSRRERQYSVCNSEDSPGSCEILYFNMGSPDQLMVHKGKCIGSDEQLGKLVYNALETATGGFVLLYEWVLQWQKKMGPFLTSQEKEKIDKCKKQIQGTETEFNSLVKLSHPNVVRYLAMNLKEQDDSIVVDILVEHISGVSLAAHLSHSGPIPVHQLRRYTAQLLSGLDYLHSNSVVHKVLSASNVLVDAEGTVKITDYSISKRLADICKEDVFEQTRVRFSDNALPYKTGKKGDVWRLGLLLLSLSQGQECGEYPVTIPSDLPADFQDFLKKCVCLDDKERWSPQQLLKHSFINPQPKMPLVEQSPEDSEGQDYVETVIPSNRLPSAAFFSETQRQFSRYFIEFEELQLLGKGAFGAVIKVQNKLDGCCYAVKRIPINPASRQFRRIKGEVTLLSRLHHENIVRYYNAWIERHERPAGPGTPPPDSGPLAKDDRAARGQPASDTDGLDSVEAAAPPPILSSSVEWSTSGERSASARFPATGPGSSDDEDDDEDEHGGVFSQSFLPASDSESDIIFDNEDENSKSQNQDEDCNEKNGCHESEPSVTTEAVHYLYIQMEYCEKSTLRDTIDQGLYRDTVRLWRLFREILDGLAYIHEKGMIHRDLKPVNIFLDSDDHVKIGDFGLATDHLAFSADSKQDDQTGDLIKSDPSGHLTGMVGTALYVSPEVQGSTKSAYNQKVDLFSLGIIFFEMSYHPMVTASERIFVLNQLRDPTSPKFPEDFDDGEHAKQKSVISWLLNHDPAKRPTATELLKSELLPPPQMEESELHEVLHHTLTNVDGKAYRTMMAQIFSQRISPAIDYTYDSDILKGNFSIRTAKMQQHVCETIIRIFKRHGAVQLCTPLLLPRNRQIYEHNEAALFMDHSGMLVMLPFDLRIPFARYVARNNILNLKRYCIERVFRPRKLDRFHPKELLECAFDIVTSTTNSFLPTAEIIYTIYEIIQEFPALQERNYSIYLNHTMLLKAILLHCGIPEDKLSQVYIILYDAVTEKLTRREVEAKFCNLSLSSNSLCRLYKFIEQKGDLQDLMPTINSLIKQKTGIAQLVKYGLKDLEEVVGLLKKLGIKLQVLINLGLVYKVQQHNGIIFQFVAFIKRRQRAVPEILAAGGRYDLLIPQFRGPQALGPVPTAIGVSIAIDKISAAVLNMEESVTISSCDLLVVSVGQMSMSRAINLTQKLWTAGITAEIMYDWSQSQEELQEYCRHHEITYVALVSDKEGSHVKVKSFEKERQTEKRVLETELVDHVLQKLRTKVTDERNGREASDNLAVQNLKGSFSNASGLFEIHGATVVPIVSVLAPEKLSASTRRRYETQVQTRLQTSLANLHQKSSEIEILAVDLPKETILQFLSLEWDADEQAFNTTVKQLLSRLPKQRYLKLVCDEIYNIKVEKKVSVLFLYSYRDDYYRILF

The test concerns the target GCN2 (Homo sapiens (Human), UniProt Q9P2K8). The test can be described thus: GCN2 Biochemical Assay (TR-FRET, GFP-eIF2S1 substrate phosphorylation). The following applies: read-out: IC50 (GCN2 Inhibitory Activity). In a few lines:
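In-house GCN2 (1.6 nM 2× stock) phosphorylates GFP-eIF2S1 (50 nM 2× stock) with ATP (0.2 mM 2× stock) and tRNA, pH 7.5, 70 min at room temperature; 10-point 3.16-fold compound series. TR-FRET detection with Tb-anti-phospho antibody, 2–3 h, Ex 340/Em 490/520 nm; artifact plate spiked with phospho-substrate.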
(In general: In TR-FRET formats the signal depends on donor and acceptor labels being close together.)
For `Cc1cnc(Nc2cc(C)n(C)n2)nc1-c1c[nH]c2c(NC(=O)CN3CC(Oc4ccncn4)C3)cccc12` [Example 29, N-(3-(2-((1,5-dimethyl-1H-pyrazol-3-yl)amino)-5-methylpyrimidin-4-yl)-1H-indol-7-yl)-2-(3-(pyrimidin-4-yloxy)azetidin-1-yl)acetamide], the IC50 lay in the range of 10 to 100 nM.

For the compound `COC(=O)c1ccccc1-c1cccc2c1CN(c1cccc3c(-c4nc(Nc5cc(C)n(C)n5)ncc4C)c[nH]c13)C2=O` [Example 463, methyl 2-(2-(3-(2-((1,5-dimethyl-1H-pyrazol-3-yl)amino)-5-methylpyrimidin-4-yl)-1H-indol-7-yl)-1-oxoisoindolin-4-yl)benzoate], the IC50 lay within 100 to 1000 nM.

Regarding `Cc1cnc(Nc2cc(C)n(C)n2)nc1-c1c[nH]c2c(NC(=O)C(C)(C)N3CC[C@H](Oc4ccncc4)C3)cccc12` [Example 25, (S)-N-(3-(2-((1,5-dimethyl-1H-pyrazol-3-yl)amino)-5-methylpyrimidin-4-yl)-1H-indol-7-yl)-2-methyl-2-(3-(pyridin-4-yloxy)pyrrolidin-1-yl)propanamide], the IC50 was more than 1000 nM.

As for `Cc1cnc(Nc2cc(C)n(C)n2)nc1-c1c[nH]c2c(NC(=O)CN3CC[C@H](Oc4cc(N5CCOCC5)ncn4)C3)cccc12` [Example 164, (S)-N-(3-(2-((1,5-dimethyl-1H-pyrazol-3-yl)amino)-5-methylpyrimidin-4-yl)-1H-indol-7-yl)-2-(3-((6-morpholinopyrimidin-4-yl)oxy)pyrrolidin-1-yl)acetamide], the concentration for half-maximal inhibition (IC50) is less than 10 nM.

For `Cc1cnc(Nc2cc(C)n(C)n2)nc1-c1c[nH]c2c(N3Cc4c(cccc4-c4cncnc4)C3=O)cccc12` [Example 417, 2-(3-(2-((1,5-dimethyl-1H-pyrazol-3-yl)amino)-5-methylpyrimidin-4-yl)-1H-indol-7-yl)-4-(pyrimidin-5-yl)isoindolin-1-one], the IC50 was less than 10 nM.

For the compound `Cc1cnc(Nc2cc(C)n(C)n2)nc1-c1c[nH]c2c(N3Cc4c(cccc4-c4ccnc(O)c4)C3=O)cccc12` [Example 446, 2-(3-(2-((1,5-dimethyl-1H-pyrazol-3-yl)amino)-5-methylpyrimidin-4-yl)-1H-indol-7-yl)-4-(2-hydroxypyridin-4-yl)isoindolin-1-one], the IC50 was less than 10 nM.

Take `Cc1cnc(Nc2cc(C)n(C)n2)nc1-c1c[nH]c2c(NC(=O)CN3CC[C@H](Oc4ncc(F)c(N)n4)C3)cccc12` [Example 176, (S)-2-(3-((4-amino-5-fluoropyrimidin-2-yl)oxy)pyrrolidin-1-yl)-N-(3-(2-((1,5-dimethyl-1H-pyrazol-3-yl)amino)-5-methylpyrimidin-4-yl)-1H-indol-7-yl)acetamide]: the IC50 was 10 to 100 nM.

Take `Cc1cnc(Nc2cc(C)n(C)n2)nc1-c1c[nH]c2c(NC(=O)CN3CC[C@@H](C(=O)N4CCN(C)CC4)C3)cccc12` [Example 65, (R)-N-(3-(2-((1,5-dimethyl-1H-pyrazol-3-yl)amino)-5-methylpyrimidin-4-yl)-1H-indol-7-yl)-2-(3-(4-methylpiperazine-1-carbonyl)pyrrolidin-1-yl)acetamide]: the IC50 was in the range of 100 to 1000 nM.

`Cc1cnc(Nc2cc(C)n(C)n2)nc1-c1c[nH]c2c(N3Cc4c(NC(=O)[C@@H]5CCC(=O)N5)cccc4C3=O)cccc12` [Example 317, (S)-N-(2-(3-(2-((1,5-dimethyl-1H-pyrazol-3-yl)amino)-5-methylpyrimidin-4-yl)-1H-indol-7-yl)-1-oxoisoindolin-4-yl)-5-oxopyrrolidine-2-carboxamide]: the concentration for half-maximal inhibition (IC50) was less than 10 nM.

As to `Cc1cnc(Nc2cc(C)n(C)n2)nc1-c1c[nH]c2c(N3Cc4c(cccc4-c4ccnc(C#N)c4)C3=O)cccc12` [Example 469, 4-(2-(3-(2-((1,5-dimethyl-1H-pyrazol-3-yl)amino)-5-methylpyrimidin-4-yl)-1H-indol-7-yl)-1-oxoisoindolin-4-yl)picolinonitrile], the IC50 is less than 10 nM.
